Results published in the CheMixHub ionic liquid set.

Assay: xn = mol fraction of the nth substance listed

CCCC[n+]1ccn(C)c1.C[C@H](N)C(=O)[O-] + O
viscosity [mPa·s], 100.3 kPa
Conditions | 288.15 K | 293.15 K | 298.15 K | 303.15 K | 308.15 K | 313.15 K | 318.15 K | 323.15 K | 328.15 K
x1 = 0.0002936 | 1.156 | 1.017 | 0.9 | 0.81 | 0.726 | 0.661 | 0.604 | 0.554 | 0.511
x1 = 0.0003927 | 1.162 | 1.022 | 0.907 | 0.813 | 0.732 | 0.664 | 0.606 | 0.557 | 0.513
x1 = 0.0004989 | 1.167 | 1.027 | 0.911 | 0.817 | 0.735 | 0.666 | 0.608 | 0.559 | 0.515
x1 = 0.0009775 | 1.203 | 1.057 | 0.937 | 0.838 | 0.755 | 0.685 | 0.626 | 0.573 | 0.529
x1 = 0.002927 | 1.361 | 1.197 | 1.057 | 0.939 | 0.842 | 0.759 | 0.688 | 0.629 | –
x1 = 0.004981 | 1.513 | 1.326 | 1.163 | 1.028 | 0.917 | 0.827 | 0.749 | 0.685 | –
x1 = 0.007048 | 1.658 | 1.446 | 1.273 | 1.119 | 0.997 | 0.894 | 0.806 | 0.736 | –
x1 = 0.009016 | 1.821 | 1.575 | 1.368 | 1.209 | 1.07 | 0.959 | 0.867 | 0.781 | –
x1 = 0.01103 | 1.957 | 1.697 | 1.477 | 1.301 | 1.147 | 1.027 | 0.929 | 0.832 | –
x1 = 0.01317 | 2.101 | 1.819 | 1.58 | 1.38 | 1.225 | 1.089 | 0.986 | 0.888 | –
x1 = 0.01511 | 2.246 | 1.941 | 1.677 | 1.469 | 1.292 | 1.156 | 1.037 | 0.932 | –
x1 = 0.01781 | 2.459 | 2.107 | 1.825 | 1.598 | 1.393 | 1.253 | 1.115 | 0.999 | –

CC[N+](CC)(CC)CCCS(=O)(=O)O.F[B-](F)(F)F + O
298 K, 101 kPa
Conditions | electrical conductivity [S/m]
x1 = 0.00077 | 1.03
x1 = 0.002 | 1.68
x1 = 0.01495 | 2.42
x1 = 0.02005 | 2.22

CC[NH2+]CC.O=S(=O)([O-])O + O
Conditions | viscosity [mPa·s]
298.15 K, 101 kPa, x2 = 0.6088 | 32.1

CCn1cc[nH+]c1.O=S(=O)([N-]S(=O)(=O)C(F)(F)F)C(F)(F)F + O
Conditions | electrical conductivity [S/m] | viscosity [mPa·s]
297.55 K, 101 kPa, x1 = 0.5 | – | 15.8
297.55 K, 101 kPa, x1 = 0.889 | – | 44.9
303.15 K, 100 kPa, x1 = 0.366 | 1.77 | –
303.15 K, 100 kPa, x1 = 0.403 | 1.6 | –
303.15 K, 100 kPa, x1 = 0.427 | 1.53 | –
303.15 K, 100 kPa, x1 = 0.455 | 1.44 | –
303.15 K, 100 kPa, x1 = 0.491 | 1.35 | –
303.15 K, 100 kPa, x1 = 0.519 | 1.24 | –
303.15 K, 100 kPa, x1 = 0.554 | 1.15 | –
303.15 K, 100 kPa, x1 = 0.592 | 1.05 | –
303.15 K, 100 kPa, x1 = 0.634 | 0.948 | –
303.15 K, 100 kPa, x1 = 0.684 | 0.845 | –
303.15 K, 100 kPa, x1 = 0.712 | 0.785 | –
303.15 K, 100 kPa, x1 = 0.743 | 0.729 | –
303.15 K, 100 kPa, x1 = 0.776 | 0.672 | –
303.15 K, 100 kPa, x1 = 0.811 | 0.619 | –
303.15 K, 100 kPa, x1 = 0.851 | 0.57 | –
303.15 K, 100 kPa, x1 = 0.896 | 0.516 | –
303.15 K, 100 kPa, x1 = 0.943 | 0.464 | –
303.15 K, 100 kPa, x2 = 0.003 | 0.424 | –

CS(=O)(=O)[O-].C[N+](C)(CCO)CCO + O
101 kPa
Conditions | viscosity [mPa·s]
298.15 K, x1 = 0.1991 | 14.87
303.15 K, x1 = 0.2989 | 29.9
303.15 K, x1 = 0.6984 | 333
313.15 K, x1 = 0.4797 | 62.4
313.15 K, x1 = 0.6984 | 186
318.15 K, x1 = 0.2989 | 17.3
318.15 K, x1 = 0.4797 | 50.1
318.15 K, x1 = 1 | 378
323.15 K, x1 = 0.1991 | 6.85
323.15 K, x1 = 0.4797 | 40.9
323.15 K, x1 = 0.6984 | 112.1
323.15 K, x1 = 1 | 282

OC1OC[C@@H](O)[C@H](O)[C@H]1O (stereo partly drawn) + O + CCCCCCCCCC[n+]1ccn(C)c1.[Br-]
298.15 K, 101 kPa
Conditions | viscosity [mPa·s]
x1 = 0.0001909, x3 = 0.001813 | 0.998
x1 = 0.0001999, x3 = 0.003572 | 1.112
x1 = 0.0002133, x3 = 0.005429 | 1.247
x1 = 0.0002286, x3 = 0.007128 | 1.391
x1 = 0.0003836, x3 = 0.001812 | 1.001
x1 = 0.0003893, x3 = 0.005428 | 1.254
x1 = 0.0003978, x3 = 0.003572 | 1.116
x1 = 0.000437, x3 = 0.007127 | 1.398
x1 = 0.0005688, x3 = 0.001812 | 1.005
x1 = 0.0005861, x3 = 0.003571 | 1.123
x1 = 0.0005867, x3 = 0.005427 | 1.262
x1 = 0.0006133, x3 = 0.007125 | 1.404
x1 = 0.0007539, x3 = 0.001812 | 1.012
x1 = 0.0007591, x3 = 0.00357 | 1.129
x1 = 0.0007841, x3 = 0.005426 | 1.269
x1 = 0.0008175, x3 = 0.007124 | 1.409
x1 = 0.0009408, x3 = 0.001811 | 1.018
x1 = 0.0009549, x3 = 0.00357 | 1.133
x1 = 0.0009897, x3 = 0.007123 | 1.418
x1 = 0.000999, x3 = 0.005425 | 1.276
x1 = 0.001114, x3 = 0.003569 | 1.136
x1 = 0.001117, x3 = 0.001811 | 1.021
x1 = 0.001181, x3 = 0.005424 | 1.28
x1 = 0.001198, x3 = 0.007121 | 1.427
x1 = 0.00132, x3 = 0.001811 | 1.023
x1 = 0.001321, x3 = 0.003568 | 1.143
x1 = 0.00137, x3 = 0.005423 | 1.286
x1 = 0.001406, x3 = 0.00712 | 1.433
x1 = 0.00149, x3 = 0.00181 | 1.03
x1 = 0.001525, x3 = 0.003568 | 1.149
x1 = 0.001559, x3 = 0.005422 | 1.292
x1 = 0.001622, x3 = 0.007118 | 1.441
x1 = 0.001679, x3 = 0.00181 | 1.037
x1 = 0.001728, x3 = 0.003567 | 1.158
x1 = 0.001768, x3 = 0.005421 | 1.3
x1 = 0.001812, x3 = 0.007117 | 1.449
